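Method: 48-hour compound exposure of cells in 96-well plates, five concentrations, linear interpolation of endpoints. GI50: concentration for 50% inhibition of growth. TGI marks complete inhibition of growth.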
Legend:
Assay in all cases: growth of human tumour cells (NCI), 48 h
A549 NSCLC = system: A549 NSCLC
ACHN renal = system: ACHN renal
BT-549 breast = system: BT-549 breast
CAKI-1 renal = system: CAKI-1 renal
CCRF-CEM leukemia = system: CCRF-CEM leukemia
COLO 205 colon = system: COLO 205 colon
DU-145 prostate = system: DU-145 prostate
EKVX NSCLC = system: EKVX NSCLC
HCC-2998 colon = system: HCC-2998 colon
HCT-116 colon = system: HCT-116 colon
HCT-15 colon = system: HCT-15 colon
HL-60(TB) leukemia = system: HL-60(TB) leukemia
HOP-62 NSCLC = system: HOP-62 NSCLC
HOP-92 NSCLC = system: HOP-92 NSCLC
HS 578T breast = system: HS 578T breast
HT29 colon = system: HT29 colon
IGROV1 ovarian = system: IGROV1 ovarian
K-562 leukemia = system: K-562 leukemia
KM12 colon = system: KM12 colon
LOX IMVI melanoma = system: LOX IMVI melanoma
M14 melanoma = system: M14 melanoma
MALME-3M melanoma = system: MALME-3M melanoma
MCF7 breast = system: MCF7 breast
MDA-MB-231 breast = system: MDA-MB-231 breast
MDA-MB-435 = system: MDA-MB-435
MOLT-4 leukemia = system: MOLT-4 leukemia
NCI-H226 lung = system: NCI-H226 lung
NCI-H23 lung = system: NCI-H23 lung
NCI-H460 lung = system: NCI-H460 lung
NCI-H522 lung = system: NCI-H522 lung
NCI/ADR-RES ovarian = system: NCI/ADR-RES ovarian
OVCAR-3 ovarian = system: OVCAR-3 ovarian
OVCAR-4 ovarian = system: OVCAR-4 ovarian
OVCAR-5 ovarian = system: OVCAR-5 ovarian
OVCAR-8 ovarian = system: OVCAR-8 ovarian
PC-3 prostate = system: PC-3 prostate
RPMI-8226 leukemia = system: RPMI-8226 leukemia
RXF 393 renal = system: RXF 393 renal
SF-268 CNS = system: SF-268 CNS
SF-295 CNS = system: SF-295 CNS
SF-539 CNS = system: SF-539 CNS
SK-MEL-2 melanoma = system: SK-MEL-2 melanoma
SK-MEL-28 melanoma = system: SK-MEL-28 melanoma
SK-MEL-5 melanoma = system: SK-MEL-5 melanoma
SK-OV-3 ovarian = system: SK-OV-3 ovarian
SN12C renal = system: SN12C renal
SNB-19 CNS = system: SNB-19 CNS
SNB-75 CNS = system: SNB-75 CNS
SW-620 colon = system: SW-620 colon
T-47D breast = system: T-47D breast
TK-10 renal = system: TK-10 renal
U251 CNS = system: U251 CNS
UACC-257 melanoma = system: UACC-257 melanoma
UACC-62 melanoma = system: UACC-62 melanoma
UO-31 renal = system: UO-31 renal

`Nc1ncc(-c2ccc3ncnc(Nc4ccc(F)c(Cl)c4)c3c2)cn1` showed a GI50 (A549 NSCLC) of 1.95 µM, a TGI (A549 NSCLC) of 8.25 µM and a GI50 (ACHN renal) of 0.387 µM. The TGI (ACHN renal) was 2.05 µM, the GI50 (BT-549 breast) was 1.88 µM and the TGI (BT-549 breast) was 8.27 µM. It also gave a GI50 (CAKI-1 renal) of 0.367 µM, a TGI (CAKI-1 renal) of 4.02 µM and a GI50 (CCRF-CEM leukemia) of 2.86 µM. It also gave a TGI (CCRF-CEM leukemia) greater than 100 µM, a GI50 (COLO 205 colon) of 2.5 µM and a TGI (COLO 205 colon) of 11.2 µM. The GI50 (DU-145 prostate) was 0.759 µM, the TGI (DU-145 prostate) was greater than 100 µM and the GI50 (EKVX NSCLC) was 0.252 µM. The TGI (EKVX NSCLC) was 38 µM, the GI50 (HCC-2998 colon) was 22.2 µM and the TGI (HCC-2998 colon) was greater than 100 µM. It also gave a GI50 (HCT-116 colon) of 1.89 µM, a TGI (HCT-116 colon) of 3.73 µM and a GI50 (HCT-15 colon) of 2.54 µM. For the same compound, the TGI (HCT-15 colon) was greater than 100 µM, the GI50 (HL-60(TB) leukemia) was 10.6 µM and the TGI (HL-60(TB) leukemia) was 29.7 µM. It also gave a GI50 (HOP-62 NSCLC) of 1.7 µM, a TGI (HOP-62 NSCLC) of 4.45 µM and a GI50 (HOP-92 NSCLC) of 1.03 µM. It also gave a TGI (HOP-92 NSCLC) of 3.52 µM, a GI50 (HS 578T breast) of 1.19 µM and a TGI (HS 578T breast) of 3.52 µM. For the same compound, the GI50 (HT29 colon) was 2.31 µM, the TGI (HT29 colon) was 19.3 µM and the GI50 (IGROV1 ovarian) was 0.258 µM. The TGI (IGROV1 ovarian) was 2.43 µM, the GI50 (K-562 leukemia) was 3.25 µM and the TGI (K-562 leukemia) was greater than 100 µM. The GI50 (KM12 colon) was 5.01 µM, the TGI (KM12 colon) was greater than 100 µM and the GI50 (LOX IMVI melanoma) was 2.35 µM. It also gave a TGI (LOX IMVI melanoma) of 10.7 µM, a GI50 (M14 melanoma) of 3.74 µM and a TGI (M14 melanoma) of 17.1 µM. For the same compound, the GI50 (MALME-3M melanoma) was 1.29 µM, the TGI (MALME-3M melanoma) was 4.47 µM and the GI50 (MCF7 breast) was 1.49 µM. It also gave a TGI (MCF7 breast) of 20.5 µM, a GI50 (MDA-MB-231 breast) of 1.44 µM and a TGI (MDA-MB-231 breast) of 3.8 µM. It also gave a GI50 (MDA-MB-435) of 2.31 µM, a TGI (MDA-MB-435) of 13.4 µM and a GI50 (MOLT-4 leukemia) of 2.24 µM. For the same compound, the TGI (MOLT-4 leukemia) was 9.33 µM, the GI50 (NCI-H226 lung) was 2.07 µM and the TGI (NCI-H226 lung) was 4.67 µM. The GI50 (NCI-H23 lung) was 2.81 µM, the TGI (NCI-H23 lung) was 39.3 µM and the GI50 (NCI-H460 lung) was 1.44 µM. The TGI (NCI-H460 lung) was 2.96 µM, the GI50 (NCI-H522 lung) was 1.7 µM and the TGI (NCI-H522 lung) was 8.92 µM. The GI50 (NCI/ADR-RES ovarian) was 3.8 µM, the TGI (NCI/ADR-RES ovarian) was 46.2 µM and the GI50 (OVCAR-3 ovarian) was 1.2 µM. It also gave a TGI (OVCAR-3 ovarian) of 2.57 µM, a GI50 (OVCAR-4 ovarian) of 1.32 µM and a TGI (OVCAR-4 ovarian) of 2.97 µM. It also gave a GI50 (OVCAR-5 ovarian) of 1.02 µM, a TGI (OVCAR-5 ovarian) of 3.69 µM and a GI50 (OVCAR-8 ovarian) of 2.96 µM. The TGI (OVCAR-8 ovarian) was 17.5 µM, the GI50 (PC-3 prostate) was 2.48 µM and the TGI (PC-3 prostate) was 53.6 µM. For the same compound, the GI50 (RPMI-8226 leukemia) was 2.15 µM, the TGI (RPMI-8226 leukemia) was 7.51 µM and the GI50 (RXF 393 renal) was 0.932 µM. It also gave a TGI (RXF 393 renal) of 3.5 µM, a GI50 (SF-268 CNS) of 2.48 µM and a TGI (SF-268 CNS) of 68.5 µM. The GI50 (SF-295 CNS) was 2.11 µM, the TGI (SF-295 CNS) was 11 µM and the GI50 (SF-539 CNS) was 1.52 µM. It also gave a TGI (SF-539 CNS) of 2.93 µM, a GI50 (SK-MEL-2 melanoma) of 18.2 µM and a TGI (SK-MEL-2 melanoma) of 39.9 µM. For the same compound, the GI50 (SK-MEL-28 melanoma) was 3.08 µM, the TGI (SK-MEL-28 melanoma) was 17.6 µM and the GI50 (SK-MEL-5 melanoma) was 2.84 µM. It also gave a TGI (SK-MEL-5 melanoma) of 9.69 µM, a GI50 (SK-OV-3 ovarian) of 0.634 µM and a TGI (SK-OV-3 ovarian) of 3.96 µM. The GI50 (SN12C renal) was 1.58 µM, the TGI (SN12C renal) was 4.1 µM and the GI50 (SNB-19 CNS) was 3.53 µM. For the same compound, the TGI (SNB-19 CNS) was 23.5 µM, the GI50 (SNB-75 CNS) was 0.544 µM and the TGI (SNB-75 CNS) was 2.43 µM. The GI50 (SW-620 colon) was 3.02 µM, the TGI (SW-620 colon) was 11.7 µM and the GI50 (T-47D breast) was 0.703 µM. The TGI (T-47D breast) was 3.16 µM, the GI50 (TK-10 renal) was 0.132 µM and the TGI (TK-10 renal) was 1.42 µM. The GI50 (U251 CNS) was 1.72 µM, the TGI (U251 CNS) was 4.24 µM and the GI50 (UACC-257 melanoma) was 13.4 µM. The TGI (UACC-257 melanoma) was 31.7 µM, the GI50 (UACC-62 melanoma) was 4.99 µM and the TGI (UACC-62 melanoma) was 39.9 µM. For the same compound, the GI50 (UO-31 renal) was 0.5 µM and the TGI (UO-31 renal) was 3.02 µM.
